A value given as a limit tells only on which side of the number the result lay.

The record followed here is patent publication US20070037790A1, “Bicyclo-pyrazole derivatives active as kinase inhibitors, process for their preparation and pharmaceutical compositions comprising them” (priority 2003, published 2007).

This test concerns the target Cdk2/Cyclin A (Homo sapiens, UniProt P24941). The test is described as follows: Inhibition assay of Cdk2/Cyclin A activity (SPA). Format: biochemical. As to conditions: 10 μM ATP, biotinylated histone H1 substrate, read-out: IC50 against Cdk2/Cyclin A. As for the experimental part:
The inhibiting activity of putative Cdk/Cyclin inhibitors and the potency of selected compounds is determined through a method of assay based on the use of the SPA technology (Amersham Pharmacia Biotech).
The assay consists of the transfer of radioactivity labelled phosphate moiety by the kinase to a biotinylated substrate. The resulting 33P-labelled biotinylated product is allowed to bind to streptavidin-coated SPA beads (biotin capacity 130 pmol/mg), and light emitted is measured in a scintillation counter.
Inhibition Assay of Cdk2/Cyclin A Activity
Kinase reaction: 4 μM in house biotinylated histone H1 (Sigma # H-5505) substrate, 10 μM ATP (0.1 microCi P^33γ-ATP), 4.2 ng Cdk2/Cyclin A complex, inhibitor in a final volume of 30 μl buffer (TRIS HCl 10 mM pH 7.5, MgCl2 10 mM, DTT 7.5 mM+0.2 mg/ml BSA) were added to each well of a 96 U bottom. After 30 min at r.t. incubation, reaction was stopped by 100 μl PBS+32 mM EDTA+0.1% Triton X-100+500 μM ATP, containing 1 mg SPA beads. Then a volume of 110 μl is transferred to Optiplate. After 20 min. incubation for substrate capture, 100 μl 5M CsCl were added to allow statification of beads to the top of the plate and let stand 4 hours before radioactivity counting in the Top-Count instrument
IC50 determination: inhibitors were tested at different concentrations ranging from 0.0015 to 10 μM. Experimental data were analyzed by the computer program GraphPad Prizm using the four parameter logistic equation: y=bottom+(top−bottom)/(1+10ˆ((log IC50−x)*slope)) where x is the logarithm of the inhibitor concentration, y is the response; y starts at bottom and goes to top with a sigmoid shape. Ki Calculation: Experimental method: Reaction was carried out in buffer (10 mM Tris, pH 7.5, 10 mM MgCl2, 0.2 mg/ml BSA, 7.5 mM DTI) containing 3.7 nM enzyme, histone and ATP (constant ratio of cold/labeled ATP 1/3000). Reaction was stopped with EDTA and the substrate captured on phosphomembrane (Multiscreen 96 well plates from Millipore). After extensive washing, the multiscreen plates are read on a top counter. Control (time zero) for each ATP and histone concentrations was measured. Experimental design: Reaction velocities are measured at different four ATP, substrate (histone) and inhibitor concentrations. An […] concentration matrix was designed around the respective ATP and substrate Km values, and the inhibitor IC50 values (0.3, 1, 3, 9 fold the Km or IC50 values). A preliminary time course experiment in the absence of inhibitor and at the different ATP and substrate concentrations allow the selection of a single endpoint time (10 min) in the linear range of the reaction for the Ki determination experiment. Kinetic parameter estimates: Kinetic parameters were estimated by simultaneous nonlinear least-square regression using [Eq.1] […]
Take `CC(C)(C)c1ccc(C(=O)Nc2[nH]nc3c2CN(C(=O)c2ccncc2)C3)cc1` [N-{5-(pyridine-4-carbonyl)-4,6-dihydropyrrolo[3,4-c]pyrazol-3-yl}-4-tertbutylbenzamide]: the IC50 is more than 10000 nM. For “3-(4-tert-butyl-benzamido)-5-[(2-propylamino)pyrimidin-4-yl]-4,6-dihydropyrrolo[3,4-c]pyrazole” the value was 220 nM; for `CC(C)(C)c1ccc(C(=O)Nc2[nH]nc3c2CN(C(=O)c2cnccn2)C3)cc1` [N-{5-(pyrazine-2-carbonyl)-4,6-dihydropyrrolo[3,4-c]pyrazol-3-yl}-4-tertbutylbenzamide], 2500 nM; for `CC(C)(C)c1ccc(C(=O)Nc2n[nH]c3c2CN(c2ccnc(N4CCOCC4)n2)C3)cc1` [3-(4-tert-butyl-benzamido)-5-[2-(N-morpholino)pyrimidin-4-yl]-4,6-dihydropyrrolo[3,4-c]pyrazole], 340 nM.
